According to PubChem BioAssay (NCI):
Where “and” joins values, the source holds several entries; their conditions need not be identical. Equal entries are not always repeated.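 Protocol summary: plate cells (96-well), add compound at 5 concentrations, incubate 48 h, interpolate endpoints linearly. GI50: concentration for 50% inhibition of growth. TGI is the concentration that stops growth completely.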

The compounds below were run on SK-OV-3 ovarian (assay: NCI-60 cell line screen, 48 h).

Structure (SMILES) | GI50 [µM] | TGI
CCC[CH2][Sn]1([CH2]CCC)[O]CC(CN2CCCC2)[O]1 (stereo not given) | 37 | > 100 µM
CC1(C)C(=O)N(CCCCCCN2C(=O)C(C)(C)c3ccccc32)c2ccccc21 |  | > 100 µM
NCCCCN(CCCN)/[N+]([O-])=N\O |  | > 100 µM
CCOC(=O)c1c(C)n(Cc2ccc(Cl)cc2Cl)c2c1c(CN(C)C)c(O)c1[nH]cnc12 | 27.3 | 43.6 µM
CCOc1ccccc1NC(=O)CC(C(=O)OC)C(=O)C(=O)OC (stereo not given) |  | > 100 µM
COc1cccc2c1C(=O)c1c(O)c3c(c(O)c1C2=O)C[C@@](O)(C(C)=O)C[C@@H]3OC1OC(C)C(O)C(N)C1Br (stereo not given in full) | 0.0314 | 0.288 µM and 0.323 µM
C[C@@]12CC=C3c4nc(Nc5cccc(O)c5)sc4CC[C@]3(C)[C@H]1CC[C@]1(C)C(=O)CC[C@@H]21 | 4.81 | 28 µM
COC(=O)C1=C(C)N(NC(=O)OC(C)(C)C)C(=O)C1=P(c1ccccc1)(c1ccccc1)c1ccccc1 |  | > 100 µM
O=C1OC(c2ccccc2)=N/C1=C\c1cccc2ccccc12 |  | > 100 µM
Cc1cccc(NC(=O)/C(=N\NC(C)(C)C)C2NC(=S)NC2=O)c1C (stereo not given) |  | > 100 µM
C[C@@H]1CC(=O)C2CCCC1C2=O (stereo not given in full) |  | > 100 µM
COC1=C(C)C(=O)c2c(c(COC(N)=O)c3n2CC2C3N2C)C1=O (stereo not given) |  | 0.167 µM
c1ccc(CNn2nnc3ccccc32)cc1 |  | > 100 µM

These compounds were tested on SN12C renal (assay: NCI-60 cell line screen, 48 h).

Structure (SMILES) | TGI | GI50 [µM]
Cc1nc(N)sc1C(=O)/C=C\c1ccc2c(c1)OCO2 | > 100 µM | 
COc1cc(C(C)O)c[n+](CCc2c[nH]c3ccccc23)c1 (stereo not given) | > 100 µM | 
CC1(C)SCc2nc3ncccc3n21 | > 100 µM | 
Cn1c(=O)c(C(c2ccc([N+](=O)[O-])cc2)c2c(O)c3ccccc3n(C)c2=O)cc2ccccc21 (stereo not given) | > 100 µM | 
COc1ccc(C(=O)C(C(=O)CCC(=O)Nc2cccc(Cl)c2)c2ccc(OC)cc2)cc1 (stereo not given) | > 100 µM | 
CCOC(=O)C1=C(C)N(NC(=O)Nc2ccccc2)C(=O)C1=P(c1ccccc1)(c1ccccc1)c1ccccc1 | > 100 µM | 
COc1cc(C=C2C(=O)NC(=O)NC2=O)cc(OC)c1OC | > 100 µM | 
Nn1c(=O)n(Cc2ccccc2)n(-c2ccccc2)c1=O | > 100 µM | 
NCC1Nc2ccccc2[C@@H](O)C1O (stereo not given in full) | > 100 µM | 
OC[C@H]1CCCC1O (stereo not given in full) | > 100 µM | 
Cc1ccc(C2=C(c3ccccc3)C(Br)(c3ccc(C)cc3)C(c3ccccc3)=C2c2ccc(C)cc2)cc1 | > 100 µM | 
N#CCN1C(=O)c2cccc3cc([N+](=O)[O-])cc(c23)C1=O | > 100 µM | 
O=C1CCN2C(=O)CCN12 | > 100 µM | 
Cc1cc(S(=O)(=O)Nc2nnc(-c3ccccc3)c(-c3ccccc3)n2)c(SCC(N)=O)cc1Cl | > 100 µM | 62.3
CC1CC[C@]2(C(=O)O)CCC3(C)C(=CC(=O)C4[C@@]5(C)CCC(=O)C(C)(C)C5CC[C@]43C)[C@@H]2[C@H]1C (stereo not given in full) | > 100 µM | 
CC(C)C(Nc1c2ccccc2nc2ccccc12)C(=O)O (stereo not given) | > 100 µM | 
COc1ccccc1CCc1cc(OC)c(OC)c(OC)c1 | > 100 µM | 
COc1cc2c(cc1OC)C(CC(=O)NN=C(C)C)NCC2 (stereo not given) | > 100 µM | 

Structure (SMILES) | TGI | GI50 [µM]
COC(=O)/C(=N\Nc1nnc(C)n1N)C(C#N)c1ccc(Cl)cc1 (stereo not given) | > 100 µM | 
Cc1cccc(NC(=O)C(=O)C(C(=O)c2ccc3ccccc3c2)C2OC(=O)c3ccccc32)c1C (stereo not given) | 40.4 µM | 
CS/C(N)=N\NC(=O)CCC(=O)Nc1ccccc1C(F)(F)F | > 100 µM | 
CC(C)(C)c1ccc2c(c1)S(=O)(=O)Nc1ccccc1NS(=O)(=O)c1cc(C(C)(C)C)ccc1OCCOCCOCCO2 | > 100 µM | 
CC(=O)[O-].CCN(CC)c1ccc(C=NCCN=Cc2ccc(N(CC)CC)cc2[O-])c([O-])c1.[Mn+3] | 48.8 µM | 20.9
NC(N)=N/N=C(\c1nc2ccc([N+](=O)[O-])cc2[nH]c1=O)C(O)c1ccc([N+](=O)[O-])cc1 (stereo not given) | > 100 µM | 
CCC[CH2][Sn]1([CH2]CCC)[O]CC(CN2CCCC2)[O]1 (stereo not given) | 31 µM | 16.7
CC1(C)C(=O)N(CCCCCCN2C(=O)C(C)(C)c3ccccc32)c2ccccc21 | > 100 µM | 
NCCCCN(CCCN)/[N+]([O-])=N\O | > 100 µM | 
CCOC(=O)c1c(C)n(Cc2ccc(Cl)cc2Cl)c2c1c(CN(C)C)c(O)c1[nH]cnc12 | 28.6 µM | 15.1
CCOc1ccccc1NC(=O)CC(C(=O)OC)C(=O)C(=O)OC (stereo not given) | > 100 µM | 
COc1cccc2c1C(=O)c1c(O)c3c(c(O)c1C2=O)C[C@@](O)(C(C)=O)C[C@@H]3OC1OC(C)C(O)C(N)C1Br (stereo not given in full) | 0.307 µM and 1.12 µM | 0.018
COC(=O)C1=C(C)N(NC(=O)OC(C)(C)C)C(=O)C1=P(c1ccccc1)(c1ccccc1)c1ccccc1 | > 100 µM | 
O=C1OC(c2ccccc2)=N/C1=C\c1cccc2ccccc12 | > 100 µM | 
C[C@@H]1CC(=O)C2CCCC1C2=O (stereo not given in full) | > 100 µM | 
COC1=C(C)C(=O)c2c(c(COC(N)=O)c3n2CC2C3N2C)C1=O (stereo not given) | 0.221 µM | 
c1ccc(CNn2nnc3ccccc32)cc1 | > 100 µM | 

The compounds below were run on U251 CNS (assay: NCI-60 cell line screen, 48 h).

Structure (SMILES) | TGI | GI50 [µM]
Cc1nc(N)sc1C(=O)/C=C\c1ccc2c(c1)OCO2 | > 100 µM | 
COc1cc(C(C)O)c[n+](CCc2c[nH]c3ccccc23)c1 (stereo not given) | > 100 µM | 
CC1(C)SCc2nc3ncccc3n21 | > 100 µM | 
Cn1c(=O)c(C(c2ccc([N+](=O)[O-])cc2)c2c(O)c3ccccc3n(C)c2=O)cc2ccccc21 (stereo not given) | 66.8 µM | 
Cc1cn(C2CC(O)C(CO)O2)c(=O)n2nnnc12 (stereo not given) | > 100 µM | 
COc1ccc(C(=O)C(C(=O)CCC(=O)Nc2cccc(Cl)c2)c2ccc(OC)cc2)cc1 (stereo not given) | > 100 µM | 
CCOC(=O)C1=C(C)N(NC(=O)Nc2ccccc2)C(=O)C1=P(c1ccccc1)(c1ccccc1)c1ccccc1 | > 100 µM | 
COc1cc(C=C2C(=O)NC(=O)NC2=O)cc(OC)c1OC | > 100 µM | 
Nn1c(=O)n(Cc2ccccc2)n(-c2ccccc2)c1=O | > 100 µM | 
NCC1Nc2ccccc2[C@@H](O)C1O (stereo not given in full) | > 100 µM | 
OC[C@H]1CCCC1O (stereo not given in full) | > 100 µM | 
Cc1cccc(N2CCN(C(=S)c3ccc4c(c3)OCO4)CC2)c1 | > 100 µM | 1.89
Cc1ccc(C2=C(c3ccccc3)C(Br)(c3ccc(C)cc3)C(c3ccccc3)=C2c2ccc(C)cc2)cc1 | > 100 µM | 
N#CCN1C(=O)c2cccc3cc([N+](=O)[O-])cc(c23)C1=O | > 100 µM | 
O=C1CCN2C(=O)CCN12 | > 100 µM | 
Cc1cc(S(=O)(=O)Nc2nnc(-c3ccccc3)c(-c3ccccc3)n2)c(SCC(N)=O)cc1Cl | 78.4 µM | 31.1
CC1CC[C@]2(C(=O)O)CCC3(C)C(=CC(=O)C4[C@@]5(C)CCC(=O)C(C)(C)C5CC[C@]43C)[C@@H]2[C@H]1C (stereo not given in full) | 98.8 µM | 
CC(C)C(Nc1c2ccccc2nc2ccccc12)C(=O)O (stereo not given) | > 100 µM | 
COc1ccccc1CCc1cc(OC)c(OC)c(OC)c1 | > 100 µM | 
COc1cc2c(cc1OC)C(CC(=O)NN=C(C)C)NCC2 (stereo not given) | > 100 µM | 

Structure (SMILES) | TGI | GI50 [µM]
COC(=O)/C(=N\Nc1nnc(C)n1N)C(C#N)c1ccc(Cl)cc1 (stereo not given) | > 100 µM | 
Cc1cccc(NC(=O)C(=O)C(C(=O)c2ccc3ccccc3c2)C2OC(=O)c3ccccc32)c1C (stereo not given) | 23.1 µM | 
CS/C(N)=N\NC(=O)CCC(=O)Nc1ccccc1C(F)(F)F | > 100 µM | 
CC(C)(C)c1ccc2c(c1)S(=O)(=O)Nc1ccccc1NS(=O)(=O)c1cc(C(C)(C)C)ccc1OCCOCCOCCO2 | > 100 µM | 
CC(=O)[O-].CCN(CC)c1ccc(C=NCCN=Cc2ccc(N(CC)CC)cc2[O-])c([O-])c1.[Mn+3] | 29.3 µM | 15.4
Clc1ccc(C2=Nn3c(COc4ccccc4Cl)nnc3SC2)c(Cl)c1 | 45.8 µM | 14.2
NC(N)=N/N=C(\c1nc2ccc([N+](=O)[O-])cc2[nH]c1=O)C(O)c1ccc([N+](=O)[O-])cc1 (stereo not given) | > 100 µM | 
COc1cc2nc3cc([N+](=O)[O-])ccc3c(NCCCNCCO)c2cc1OC | 0.433 µM | 0.149
CCC[CH2][Sn]1([CH2]CCC)[O]CC(CN2CCCC2)[O]1 (stereo not given) | 29.1 µM | 15.3
CC1(C)C(=O)N(CCCCCCN2C(=O)C(C)(C)c3ccccc32)c2ccccc21 | > 100 µM | 
NCCCCN(CCCN)/[N+]([O-])=N\O | > 100 µM | 
CCOC(=O)c1c(C)n(Cc2ccc(Cl)cc2Cl)c2c1c(CN(C)C)c(O)c1[nH]cnc12 | 27.9 µM | 14.8
CCOc1ccccc1NC(=O)CC(C(=O)OC)C(=O)C(=O)OC (stereo not given) | > 100 µM | 
COc1cccc2c1C(=O)c1c(O)c3c(c(O)c1C2=O)C[C@@](O)(C(C)=O)C[C@@H]3OC1OC(C)C(O)C(N)C1Br (stereo not given in full) | 1.07 µM and 2.21 µM | 
C[C@@]12CC=C3c4nc(Nc5cccc(O)c5)sc4CC[C@]3(C)[C@H]1CC[C@]1(C)C(=O)CC[C@@H]21 | 16.9 µM | 2.24
COC(=O)C1=C(C)N(NC(=O)OC(C)(C)C)C(=O)C1=P(c1ccccc1)(c1ccccc1)c1ccccc1 | > 100 µM | 
O=C1OC(c2ccccc2)=N/C1=C\c1cccc2ccccc12 | > 100 µM | 
Cc1cccc(NC(=O)/C(=N\NC(C)(C)C)C2NC(=S)NC2=O)c1C (stereo not given) | > 100 µM | 
C[C@@H]1CC(=O)C2CCCC1C2=O (stereo not given in full) | > 100 µM | 
COC1=C(C)C(=O)c2c(c(COC(N)=O)c3n2CC2C3N2C)C1=O (stereo not given) | 0.0231 µM | 
